The values that follow come from patent US11492335B2, “Aryl or heteroaryl triazolone derivatives or salts thereof, or pharmaceutical compositions comprising the same” (YUHAN CORPORATION, priority 2018, dated 2022).

Assay type in all cases: biochemical
Assay [1] addresses T1, recombinant human MAO-B (monoamine oxidase-B) (Homo sapiens, UniProt P27338).
T1 construct: purchased Sigma-Aldrich
T1 sequence (P27338 1-520): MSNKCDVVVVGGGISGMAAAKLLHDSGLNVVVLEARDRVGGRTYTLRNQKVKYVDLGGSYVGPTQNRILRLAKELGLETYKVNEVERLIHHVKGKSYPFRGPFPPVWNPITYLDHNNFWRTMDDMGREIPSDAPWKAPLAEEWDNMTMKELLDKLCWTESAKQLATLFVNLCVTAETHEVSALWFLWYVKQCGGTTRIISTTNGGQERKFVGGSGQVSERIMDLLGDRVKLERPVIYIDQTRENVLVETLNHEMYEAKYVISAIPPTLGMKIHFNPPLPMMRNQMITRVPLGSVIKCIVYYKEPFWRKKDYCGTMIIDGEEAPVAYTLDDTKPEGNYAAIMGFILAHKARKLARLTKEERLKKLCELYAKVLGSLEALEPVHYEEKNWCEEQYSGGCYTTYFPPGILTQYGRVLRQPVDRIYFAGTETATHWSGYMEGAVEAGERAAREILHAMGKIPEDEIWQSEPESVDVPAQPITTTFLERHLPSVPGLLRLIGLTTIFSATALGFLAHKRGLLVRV
Put plainly: Activity on recombinant human MAO-B, Amplex Red method, 1 mM benzylamine substrate. Particulars: read-out: Inhibitory Activity (IC50, nM) MAO-B. The essentials:
(§1)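 First, serially diluted compounds were incubated with recombinant enzyme in 50 mM sodium phosphate, pH 7.4, for 30 min at 37° C. Next, Amplex Red (200 uM), HRP (1 U/mL) and tyramine (0.5 mM, MAO-A) or benzylamine (1 mM, MAO-B) were added. Then fluorescence was monitored over 1-2 h and IC50 fitted.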

Assay [2] has as its target T2, recombinant human VAP-1 (Homo sapiens, UniProt Q16853).
T2 construct: purchased R&D systems
T2 sequence (Q16853 1-763): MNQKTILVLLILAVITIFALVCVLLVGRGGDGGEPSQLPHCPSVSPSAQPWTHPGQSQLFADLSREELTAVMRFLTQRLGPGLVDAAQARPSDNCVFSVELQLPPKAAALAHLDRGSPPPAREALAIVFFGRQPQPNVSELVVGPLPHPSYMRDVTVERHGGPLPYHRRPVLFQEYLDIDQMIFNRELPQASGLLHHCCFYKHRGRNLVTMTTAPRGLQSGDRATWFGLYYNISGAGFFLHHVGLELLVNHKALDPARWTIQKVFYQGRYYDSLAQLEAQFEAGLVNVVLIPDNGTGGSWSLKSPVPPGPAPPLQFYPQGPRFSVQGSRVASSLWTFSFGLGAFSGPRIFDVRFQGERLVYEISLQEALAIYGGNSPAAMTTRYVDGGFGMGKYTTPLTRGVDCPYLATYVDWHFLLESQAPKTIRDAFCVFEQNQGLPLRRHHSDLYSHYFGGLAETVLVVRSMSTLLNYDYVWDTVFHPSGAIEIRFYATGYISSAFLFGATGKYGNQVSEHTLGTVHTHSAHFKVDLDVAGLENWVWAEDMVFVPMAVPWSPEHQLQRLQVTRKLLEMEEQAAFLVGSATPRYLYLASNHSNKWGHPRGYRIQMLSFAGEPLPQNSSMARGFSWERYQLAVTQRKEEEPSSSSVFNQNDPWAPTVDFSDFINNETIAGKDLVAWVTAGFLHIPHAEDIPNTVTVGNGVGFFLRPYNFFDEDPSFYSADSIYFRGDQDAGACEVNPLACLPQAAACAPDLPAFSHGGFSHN
In words: Activity on recombinant human VAP-1, Amplex Red HRP-coupled hydrogen peroxide assay, benzylamine substrate. Particulars: recombinant human VAP-1, benzylamine substrate, read-out: Inhibitory Activity (IC50, nM) human VAP-1. Put shortly:
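H2O2 generation from 1 mM benzylamine was coupled via 1 U/mL HRP to 200 uM Amplex Red; inhibitors, serially diluted 1:3 over 8 points with under 1% final DMSO, had been preincubated 30 min at 37 °C. IC50 from percentage drop in rate.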

Assay [3] addresses T3, recombinant human MAO-A (monoamine oxidase-A) (Homo sapiens, UniProt P21397).
T3 construct: purchased Sigma-Aldrich
T3 sequence (P21397 1-527): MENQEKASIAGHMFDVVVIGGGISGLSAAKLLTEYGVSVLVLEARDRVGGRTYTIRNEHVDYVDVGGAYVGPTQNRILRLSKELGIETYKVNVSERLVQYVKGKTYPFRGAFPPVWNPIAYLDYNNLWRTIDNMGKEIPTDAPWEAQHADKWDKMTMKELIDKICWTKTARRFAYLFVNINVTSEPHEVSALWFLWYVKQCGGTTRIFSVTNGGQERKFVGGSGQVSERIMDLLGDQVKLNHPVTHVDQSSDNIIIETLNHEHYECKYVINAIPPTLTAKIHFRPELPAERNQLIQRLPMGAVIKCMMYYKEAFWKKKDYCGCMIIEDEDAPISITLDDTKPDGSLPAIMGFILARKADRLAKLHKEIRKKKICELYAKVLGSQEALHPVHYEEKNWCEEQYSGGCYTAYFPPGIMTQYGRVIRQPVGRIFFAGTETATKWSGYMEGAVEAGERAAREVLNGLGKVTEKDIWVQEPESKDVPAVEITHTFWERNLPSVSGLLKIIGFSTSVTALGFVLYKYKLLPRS
In words: Activity on recombinant human MAO-A, Amplex Red method, 0.5 mM tyramine substrate. As to conditions: read-out: Inhibitory Activity (IC50, nM) MAO-A. The essentials: as §1

In assay [4] the target is T4, recombinant human DAO (diamine oxidase) (Homo sapiens, UniProt P19801).
T4 construct: purchased R&D systems
T4 sequence (P19801 20-751): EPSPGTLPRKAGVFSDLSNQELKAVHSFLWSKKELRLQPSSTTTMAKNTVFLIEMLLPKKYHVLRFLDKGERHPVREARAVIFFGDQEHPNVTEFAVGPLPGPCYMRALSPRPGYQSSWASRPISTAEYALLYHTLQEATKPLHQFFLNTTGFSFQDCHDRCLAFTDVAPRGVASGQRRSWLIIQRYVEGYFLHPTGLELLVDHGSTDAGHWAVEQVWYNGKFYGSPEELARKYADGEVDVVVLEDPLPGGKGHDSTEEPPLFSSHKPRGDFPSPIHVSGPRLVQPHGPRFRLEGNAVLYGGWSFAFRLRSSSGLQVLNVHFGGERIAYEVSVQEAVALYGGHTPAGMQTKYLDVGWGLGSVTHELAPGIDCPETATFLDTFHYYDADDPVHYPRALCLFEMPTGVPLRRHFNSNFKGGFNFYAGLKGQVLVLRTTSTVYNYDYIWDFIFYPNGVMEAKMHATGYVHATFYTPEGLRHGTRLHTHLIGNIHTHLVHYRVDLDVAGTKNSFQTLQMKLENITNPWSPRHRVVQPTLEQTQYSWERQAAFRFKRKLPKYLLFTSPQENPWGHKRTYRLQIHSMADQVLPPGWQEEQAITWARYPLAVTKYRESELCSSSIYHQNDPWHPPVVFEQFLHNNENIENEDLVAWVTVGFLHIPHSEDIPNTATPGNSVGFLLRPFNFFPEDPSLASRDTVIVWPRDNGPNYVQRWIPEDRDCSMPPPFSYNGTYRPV
In words: Activity on recombinant human DAO, Amplex Red method, 1 mM putrescine substrate. Particulars: recombinant human DAO, read-out: Inhibitory Activity (IC50, nM) DAO. The essentials: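 Inhibition of recombinant human DAO (diamine oxidase, R&D systems) was assessed with the Amplex Red Hydrogen Peroxide Assay Kit. Hydrogen peroxide produced from 1 mM putrescine was detected through an HRP-coupled reaction that converts Amplex Red into fluorescent resorufin, read at 544 nm excitation and 590 nm emission. IC50 values came from four-parameter logistic fits in GraphPad Prism.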

[5] abbreviates: 1 mM putrescine, * = between 10 and 100 nM, ** = between 300 and 1000 nM.

Where a name gives a salt, the structure may show the parent alone. Read-outs that look alike come from different tables or passages of the source.

`NC/C(=C/F)Cn1ncn(-c2cccc(-c3ccc4c(c3)OCCO4)c2)c1=O` [Example 94, 2-[(2Z)-2-(aminomethyl)-3-fluoroprop-2-en-1-yl]-4-[3-(2,3-dihydro-1,4-benzodioxin-6-yl)phenyl]-2,4-dihydro-3H-1,2,4-triazol-3-one hydrochloride]: the 50% inhibitory concentration (IC50) was 2630 nM in assay [1] (1 mM benzylamine), 2 nM in assay [2] (30 min preincubation at 37° C.), greater than 100000 nM in assay [3] (0.5 mM tyramine) and 120 nM in assay [4] (setting [5]).
On the same counts, the results for `NC/C(=C\F)Cn1ncn(-c2cccc(-c3cccnc3)c2)c1=O` [Example 82, 2-[(2E)-2-(aminomethyl)-3-fluoroprop-2-en-1-yl]-4-[3-(pyridin-3-yl)phenyl]-2,4-dihydro-3H-1,2,4-triazol-3-one hydrochloride] are 18000 nM, 0.8 nM, greater than 100000 nM and less than 100 nM.
Regarding `NC/C(=C\F)Cn1ncn(-c2cccc(-c3ccc(C4CCOCC4)cc3)c2)c1=O` [Example 73, 2-[(2E)-2-(aminomethyl)-3-fluoroprop-2-en-1-yl]-4-[4′-(tetrahydro-2H-pyran-4-yl)biphenyl-3-yl]-2,4-dihydro-3H-1,2,4-triazol-3-one hydrochloride], the IC50 in assay [1] (1 mM benzylamine) was greater than 10000 nM; in assay [2] (30 min preincubation at 37° C.) it was 0.98 nM; in assay [3] (0.5 mM tyramine), greater than 100000 nM; in assay [4] (setting [5]), 67 nM.
Turning to `NC/C(=C\F)Cn1ncn(-c2cc(C#Cc3ccncc3)ccn2)c1=O` [Example 246, 2-[(2E)-2-(aminomethyl)-3-fluoroprop-2-en-1-yl]-4-[4-(pyridin-4-ylethynyl)pyridin-2-yl]-2,4-dihydro-3H-1,2,4-triazol-3-one hydrochloride], the half-maximal inhibitory concentration (IC50) in assay [1] (1 mM benzylamine substrate) is 130 nM; in assay [2], 0.5 nM; in assay [3] (0.5 mM tyramine substrate), greater than 100000 nM; in assay [4] (1 mM putrescine substrate), 12 nM.
Consider `NC/C(=C\F)Cn1ncn(-c2cnc(Br)cn2)c1=O` [Example 38, 2-[(2E)-2-(aminomethyl)-3-fluoroprop-2-en-1-yl]-4-(5-bromopyrazin-2-yl)-2,4-dihydro-3H-1,2,4-triazol-3-one], for which the concentration for half-maximal inhibition (IC50) in assay [1] (1 mM benzylamine) was 112 nM; in assay [2] (30 min preincubation at 37° C.), 4.4 nM; in assay [3] (0.5 mM tyramine) it was 19600 nM; in assay [4] (setting [5]), less than 100 nM.
On the same counts, the results for `CC(=O)c1ccc(-c2cnc(-n3cnn(C/C(=C/F)CN)c3=O)c(C)c2)s1` [Example 132, 4-[5-(5-acetylthiophen-2-yl)-3-methylpyridin-2-yl]-2-[(2E)-2-(aminomethyl)-3-fluoroprop-2-en-1-yl]-2,4-dihydro-3H-1,2,4-triazol-3-one hydrochloride] are 850 nM, 0.54 nM, 62000 nM and 280 nM.
Regarding `Cc1cc(-c2ccc3c(c2)NC(=O)C3)cnc1-n1cnn(C/C(=C/F)CN)c1=O` [Example 151, 6-(6-{1-[(2E)-2-(aminomethyl)-3-fluoroprop-2-en-1-yl]-5-oxo-1,5-dihydro-4H-1,2,4-triazol-4-yl}-5-methylpyridin-3-yl)-1,3-dihydro-2H-indol-2-one], the half-inhibitory concentration (IC50) was greater than 10000 nM in assay [1] (1 mM benzylamine substrate), 0.52 nM in assay [2], greater than 10000 nM in assay [3] (0.5 mM tyramine substrate) and 98 nM in assay [4] (1 mM putrescine substrate).
Regarding `NC/C(=C\F)Cn1ncn(-c2ncc(-c3ccc4c(c3)OCO4)cc2F)c1=O` [Example 162, 2-[(2E)-2-(aminomethyl)-3-fluoroprop-2-en-1-yl]-4-[5-(1,3-benzodioxol-5-yl)-3-fluoropyridin-2-yl]-2,4-dihydro-3H-1,2,4-triazol-3-one hydrochloride], the 50% inhibitory concentration (IC50) was found to be 17 nM in assay [1] (1 mM benzylamine substrate), 1.6 nM in assay [2], 3140 nM in assay [3] (0.5 mM tyramine substrate) and 1.6 nM in assay [4] (1 mM putrescine substrate).
Regarding `CN1C(=O)CCc2cc(-c3cccc(-n4cnn(C/C(=C/F)CN)c4=O)n3)ccc21` [Example 198, 6-[6-[1-[(E)-2-(aminomethyl)-3-fluoro-allyl]-5-oxo-1,2,4-triazol-4-yl]-2-pyridyl]-1-methyl-3,4-dihydroquinolin-2-one hydrochloride], the IC50 is greater than 10000 nM in assay [1] (1 mM benzylamine substrate), 2.9 nM in assay [2], greater than 100000 nM in assay [3] (0.5 mM tyramine substrate) and 130 nM in assay [4] (1 mM putrescine substrate).
Regarding `CC(=O)Nc1ccc(-c2cc(C)c(-n3cnn(C/C(=C/F)CN)c3=O)cn2)cc1` [Example 120, N-[4-(5-{1-[(2E)-2-(aminomethyl)-3-fluoroprop-2-en-1-yl]-5-oxo-1,5-dihydro-4H-1,2,4-triazol-4-yl}-4-methylpyridin-2-yl)phenyl]acetamide], the IC50 was greater than 10000 nM in assay [1] (1 mM benzylamine), 1.4 nM in assay [2] (30 min preincubation at 37° C.), greater than 100000 nM in assay [3] (0.5 mM tyramine) and 110 nM in assay [4] (setting [5]).
